Data from patent publication US20140357512A1, “HISTONE DEACETYLASE (HDAC) BIOMARKERS IN MULTIPLE MYELOMA” (priority 2013, published 2014).

Test system: human myeloma cell line MM.1S
Assay: SILAC acetylated-lysine peptide profiling, HDAC inhibitor vs DMSO (light/heavy ratio)
Format: cell-based
Description: An embodiment of the invention comprises utilizing the SILAC method in order to quantitate changes in protein expression between two or more populations of cells. The SILAC method is a technique based on mass spectrometry that detects differences in protein abundance among samples using non-radioactive isotopic labeling. The SILAC method is known in the art, and described in detail in Ong et al., “Stable Isotope Labeling by Amino Acids in Cell Culture, SILAC, as a Simple and Accurate Approach to Expression Proteomics”, Molecular & Cellular Proteomics, vol. 1, pp. 376-386 (2002), which is incorporated herein by reference in its entirety.
Briefly, the SILAC method involves growing two populations of cells in cell culture. The first population of cells is grown in growth media containing normal amino acids (“normal media”). The second population of cells is grown in media lacking a standard essential amino acid (such as lysine), but is then supplemented with a non-radioactive, isotopically labeled form of that essential amino acid (such as lysine labeled with ^13C atoms, rather than normal ^12C atoms), which is called “heavy media”. When the two populations of cells are each growing in the medium, they incorporate the amino acids into all of their proteins. The growth of cells maintained in the heavy media is no different from that in normal media. All peptides containing the heavy amino acids are heavier than their normal counterparts. The cells from each of the two populations of cells are lysed. The lysates from each of the two cell populations are then combined. The combined cell lysates are then analyzed by mass spectrometry. Pairs of chemically identical peptides of different stable isotope composition can be differentiated in a mass spectrometer due to their difference in mass. The ratio of peak intensities in the mass spectrum for such peptide pairs reflects the abundance ratio for the two proteins.
This example describes SILAC studies that were performed to compare the effects of three different HDAC inhibitors (Compound A, Compound B, and tubastatin A) to a control on a human multiple myeloma cell line. The HDAC inhibitors were also compared amongst themselves to determine differences in their effects.
A human myeloma cell line MM.1S was grown using either ^12C (light) or ^13C (heavy) lysine containing culture medium. The “heavy” cells were treated with DMSO as the control, and the “light” cells were treated with a single HDAC inhibitor at 37° C. for 6 hours. The heavy and light cells were lysed, and the lysates were mixed in 1:1 ratio and digested with the protease trypsin. The acetylated lysine containing peptides (due to the action of the HDAC inhibitor) in the digested peptide pool were captured by a non-specific anti-acetylated lysine antibody cocktail (the antibodies identify both light and heavy acetylated peptides), and subjected to mass spectrometry analysis in order to identify thousands of individual peptides.
Thousands of peptides were identified in pairs (^12C and ^13C) due to their known mass differences. The amino acid sequence and quantitative ratio (Light/Heavy) of a given peptide in two differentially treated cell lysates were then determined and annotated with their possible protein (gene) sources.
As stated above, three HDAC inhibitors (Compound A, Compound B, and Tubastatin A) were used. Thus, the SILAC method was performed three times, with a different HDAC inhibitor compared to a control each time. Accordingly, there are three pairs of quantitative data in the table below, i.e., Compound A:DMSO, Compound B:DMSO, and Tubastatin A:DMSO. A cut-off of 1.30 fold of change (increase or decrease) was then used to determine “changed” or “+” in the table, and any peptides with a fold of change less than 1.3 fold were determined to be “unchanged” or “0” in the table. Those peptides that were not identified were marked as “NA” in the table. […]

`O=C(CCCCCCNC(=O)c1cnc(N(c2ccccc2)c2ccccc2)nc1)NO` [Compound A, 2-(diphenylamino)-N-(7-(hydroxyamino)-7-oxoheptyl)pyrimidine-5-carboxamide] was tested, and the “L/H ratio of acetylated peptide SELK(ac)HAK” value (SEQ ID NO: 696, Isoform Long of Delta-1-pyrroline-5-carboxylate synthase [68], ALDH18A1) was 0.66 log 2, the “L/H ratio of acetylated peptide SCGLNPK(ac)LEK” value (SEQ ID NO: 697, Isoform 5 of Transcriptional regulator ATRX [468], ATRX) was 0.66 log 2 and the “L/H ratio of acetylated peptide EVK(ac)VLLDQLR” value (SEQ ID NO: 698, Isoform 1 of Adipocyte plasma membrane-associated protein [250], C20orf3) was 0.67 log 2. For the same compound, the “L/H ratio of acetylated peptide KAVTK(ac)VQK” value (SEQ ID NO: 699, Histone H2B type 2-F [21], HIST2H2BF) was 0.67 log 2, the “L/H ratio of acetylated peptide ILQK(ac)QGFK” value (SEQ ID NO: 700, Dihydrolipoyl dehydrogenase mitochondrial [267], DLD) was 0.67 log 2 and the “L/H ratio of acetylated peptide NK(ac)FGAPQK” value (SEQ ID NO: 701, Trifunctional enzyme subunit alpha mitochondrial [353], HADHA) was 0.68 log 2. The “L/H ratio of acetylated peptide VTAVHK(ac)ANIMK” value (SEQ ID NO: 702, Isocitrate dehydrogenase [NAD] subunit gamma mitochondrial [221], IDH3G) was 0.68 log 2, the “L/H ratio of acetylated peptide ACPEK(ac)HFAFK” value (SEQ ID NO: 703, Protein FAM3C [67], FAM3C) was 0.68 log 2 and the “L/H ratio of acetylated peptide KPTLDK(ac)PSPETFVK” value (SEQ ID NO: 704, Estradiol 17-beta-dehydrogenase 12 [249], HSD17B12) was 0.68 log 2. For the same compound, the “L/H ratio of acetylated peptide QLAQK(ac)YNCDK” value (SEQ ID NO: 705, Ubiquitin-60S ribosomal protein L40 [88], UBA52) was 0.68 log 2, the “L/H ratio of acetylated peptide […](ac)EDVK” value (SEQ ID NO: 706, Isoform 1 of ATP synthase subunit d mitochondrial [95], ATP5H) was 0.68 log 2 and the “L/H ratio of acetylated peptide […](ac)TLSK” value (SEQ ID NO: 707, Isoform 2 of PDZ domain-containing protein 2 [1726], PDZD2) was 0.69 log 2. The “L/H ratio of acetylated peptide ADK(ac)LAEEHSS” value (SEQ ID NO: 708, ATP synthase subunit beta mitochondrial [522], ATP5B) was 0.70 log 2, the “L/H ratio of acetylated peptide DFGSFDK(ac)FK” value (SEQ ID NO: 709, Superoxide dismutase [Mn] mitochondrial [130], SOD2) was 0.70 log 2 and the “L/H ratio of acetylated peptide KIDK(ac)YTEVLK” value (SEQ ID NO: 710, 60S ribosomal protein L13a [191], SNORD32A, RPL13A, SNORD33, SNORD34) was 0.70 log 2. The “L/H ratio of acetylated peptide CSK(ac)LPSSTK(ac)SGWPR” value (SEQ ID NO: 711, cDNA FLJ75110 highly similar to Homo sapiens PHD finger protein 15 (PHF15) mRNA 3[2:38], PHF15) was 0.70 log 2, the “L/H ratio of acetylated peptide KAINK(ac)AQK” value (SEQ ID NO: 712, Histone H2B type 1-M [21], HIST1H2BM) was 0.70 log 2 and the “L/H ratio of acetylated peptide EFPEK(ac)QELHR” value (SEQ ID NO: 713, Protein zer-1 homolog [584], ZER1) was 0.70 log 2. For the same compound, the “L/H ratio of acetylated peptide TDLEK(ac)[…]” value (SEQ ID NO: 714, Putative annexin A2-like protein [157], ANXA2P2) was 0.71 log 2, the “L/H ratio of acetylated peptide […](ac)ASMK” value (SEQ ID NO: 715, Putative annexin A2-like protein [115], ANXA2P2) was 0.72 log 2 and the “L/H ratio of acetylated peptide LTCYLCK(ac)QK” value (SEQ ID NO: 716, Isoform 1 of Bromodomain-containing protein 1 [33]1, BRD1) was 0.72 log 2. For the same compound, the “L/H ratio of acetylated peptide AINK(ac)AQK(ac)K” value (SEQ ID NO: 717, Histone H2B type 1-M [21:24], HIST1H2BM) was 0.72 log 2, the “L/H ratio of acetylated peptide KGIEK(ac)NLGIGK” value (SEQ ID NO: 718, Malate dehydrogenase mitochondrial [301], MDH2) was 0.72 log 2 and the “L/H ratio of acetylated peptide DNGK(ac)[…]” value (SEQ ID NO: 719, ATP synthase subunit alpha mitochondrial [305], ATP5A1) was 0.72 log 2. The “L/H ratio of acetylated peptide QLYNIYAK(ac)HTK” value (SEQ ID NO: 720, Putative ATP-dependent Clp protease proteolytic subunit mitochondrial [211], CLPP) was 0.72 log 2, the “L/H ratio of acetylated peptide GKGDK(ac)AQIEK” value (SEQ ID NO: 721, 60 kDa heat shock protein mitochondrial [364], HSPD1) was 0.73 log 2 and the “L/H ratio of acetylated peptide K(ac)FLVHNVK” value (SEQ ID NO: 722, 60S ribosomal protein L32 [76], RPL32) was 0.73 log 2. The “L/H ratio of acetylated peptide GLIK(ac)LVSK” value (SEQ ID NO: 723, 40S ribosomal protein S25 [98], RPS25) was 0.73 log 2, the “L/H ratio of acetylated peptide IGFAEK(ac)VAAK” value (SEQ ID NO: 724, Isoform Mitochondrial of Fumarate hydratase mitochondrial [292], FH) was 0.73 log 2 and the “L/H ratio of acetylated peptide (ac)AEK(ac)FDCHYCR” value (SEQ ID NO: 725, four and a half LIM domains protein 1 isoform 5 [20], FHL1) was 0.73 log 2. The “L/H ratio of acetylated peptide […](ac)VIPK” value (SEQ ID NO: 726, Endoplasmic reticulum resident protein 29 [48], ERP29) was 0.73 log 2, the “L/H ratio of acetylated peptide […](ac)SVAR” value (SEQ ID NO: 727, 60S ribosomal protein L7a [245], RPL7A, SNORD24) was 0.73 log 2 and the “L/H ratio of acetylated peptide TITMK(ac)QLLR” value (SEQ ID NO: 728, Branched-chain-amino-acid aminotransferase [281], BCAT2) was 0.73 log 2. For the same compound, the “L/H ratio of acetylated peptide SK(ac)FVLVK” value (SEQ ID NO: 729, Endoplasmic reticulum resident protein 29 [54], ERP29) was 0.74 log 2 and the “L/H ratio of acetylated peptide LVEDTK(ac)HRPK” value (SEQ ID NO: 730, 39S ribosomal protein L9 mitochondrial [87], MRPL9) was 0.74 log 2.
